Tests used:
Type in all cases: functional
UACC-62 = assay: Anticancer activity against Homo sapiens (human) UACC62 cells assessed as cell growth promotion at 10 uM after 48 hr by SRB assay
UACC-257 = assay: Anticancer activity against Homo sapiens (human) UACC257 cells assessed as cell growth promotion at 10 uM after 48 hr by SRB assay
SK-MEL-5 = assay: Anticancer activity against Homo sapiens (human) SK-MEL-5 cells assessed as cell growth promotion at 10 uM after 48 hr by SRB assay
BT-549 = assay: Anticancer activity against Homo sapiens (human) BT549 cells assessed as cell growth promotion at 10 uM after 48 hr by SRB assay
Hs-578T = assay: Anticancer activity against Homo sapiens (human) Hs 578T cells assessed as cell growth promotion at 10 uM after 48 hr by SRB assay
PC-3 = assay: Anticancer activity against Homo sapiens (human) PC3 cells assessed as cell growth promotion at 10 uM after 48 hr by SRB assay
DU-145 = assay: Anticancer activity against Homo sapiens (human) DU145 cells assessed as cell growth promotion at 10 uM after 48 hr by SRB assay
TK-10 = assay: Anticancer activity against Homo sapiens (human) TK10 cells assessed as cell growth promotion at 10 uM after 48 hr by SRB assay
RXF 393 = assay: Anticancer activity against Homo sapiens (human) RXF393 cells assessed as cell growth promotion at 10 uM after 48 hr by SRB assay
CAKI-1 = assay: Anticancer activity against Homo sapiens (human) CAKI-1 cells assessed as cell growth promotion at 10 uM after 48 hr by SRB assay
ACHN = assay: Anticancer activity against Homo sapiens (human) ACHN cells assessed as cell growth promotion at 10 uM after 48 hr by SRB assay
A498 = assay: Anticancer activity against Homo sapiens (human) A498 cells assessed as cell growth promotion at 10 uM after 48 hr by SRB assay
SK-OV-3 = assay: Anticancer activity against Homo sapiens (human) SKOV3 cells assessed as cell growth promotion at 10 uM after 48 hr by SRB assay
NCI/ADR-RES = assay: Anticancer activity against Homo sapiens (human) NCI/ADR-RES cells assessed as cell growth promotion at 10 uM after 48 hr by SRB assay
OVCAR-8 = assay: Anticancer activity against Homo sapiens (human) OVCAR8 cells assessed as cell growth promotion at 10 uM after 48 hr by SRB assay
OVCAR-5 = assay: Anticancer activity against Homo sapiens (human) OVCAR5 cells assessed as cell growth promotion at 10 uM after 48 hr by SRB assay
OVCAR-4 = assay: Anticancer activity against Homo sapiens (human) OVCAR4 cells assessed as cell growth promotion at 10 uM after 48 hr by SRB assay
OVCAR-3 = assay: Anticancer activity against Homo sapiens (human) OVCAR3 cells assessed as cell growth promotion at 10 uM after 48 hr by SRB assay
MDA-MB-468 = assay: Anticancer activity against Homo sapiens (human) MDA-MB-468 cells assessed as cell growth promotion at 10 uM after 48 hr by SRB assay
HCC 2998 = assay: Anticancer activity against Homo sapiens (human) HCC2998 cells assessed as cell growth promotion at 10 uM after 48 hr by SRB assay
COLO 205 = assay: Anticancer activity against Homo sapiens (human) COLO205 cells assessed as cell growth promotion at 10 uM after 48 hr by SRB assay
NCI-H522 = assay: Anticancer activity against Homo sapiens (human) NCI-H522 cells assessed as cell growth promotion at 10 uM after 48 hr by SRB assay
NCI-H322M = assay: Anticancer activity against Homo sapiens (human) NCI-H322M cells assessed as cell growth promotion at 10 uM after 48 hr by SRB assay
NCI-H23 = assay: Anticancer activity against Homo sapiens (human) NCI-H23 cells assessed as cell growth promotion at 10 uM after 48 hr by SRB assay
NCI-H226 = assay: Anticancer activity against Homo sapiens (human) NCI-H226 cells assessed as cell growth promotion at 10 uM after 48 hr by SRB assay
HOP-92 = assay: Anticancer activity against Homo sapiens (human) HOP92 cells assessed as cell growth promotion at 10 uM after 48 hr by SRB assay
HOP-62 = assay: Anticancer activity against Homo sapiens (human) HOP62 cells assessed as cell growth promotion at 10 uM after 48 hr by SRB assay
A549 = assay: Anticancer activity against Homo sapiens (human) A549/ATCC cells assessed as cell growth promotion at 10 uM after 48 hr by SRB assay
SR = assay: Anticancer activity against Homo sapiens (human) SR cells assessed as cell growth promotion at 10 uM after 48 hr by SRB assay
MOLT-4 = assay: Anticancer activity against Homo sapiens (human) MOLT4 cells assessed as cell growth promotion at 10 uM after 48 hr by SRB assay
K562 = assay: Anticancer activity against Homo sapiens (human) K562 cells assessed as cell growth promotion at 10 uM after 48 hr by SRB assay
SK-MEL-28 = assay: Anticancer activity against Homo sapiens (human) SK-MEL-28 cells assessed as cell growth promotion at 10 uM after 48 hr by SRB assay
SK-MEL-2 = assay: Anticancer activity against Homo sapiens (human) SK-MEL-2 cells assessed as cell growth promotion at 10 uM after 48 hr by SRB assay
MDA-MB-435 = assay: Anticancer activity against Homo sapiens (human) MDA-MB-435 cells assessed as cell growth promotion at 10 uM after 48 hr by SRB assay
M14 = assay: Anticancer activity against Homo sapiens (human) M14 cells assessed as cell growth promotion at 10 uM after 48 hr by SRB assay
Malme-3M = assay: Anticancer activity against Homo sapiens (human) MALME-3M cells assessed as cell growth promotion at 10 uM after 48 hr by SRB assay
SF-295 = assay: Anticancer activity against Homo sapiens (human) SF295 cells assessed as cell growth promotion at 10 uM after 48 hr by SRB assay
SF-268 = assay: Anticancer activity against Homo sapiens (human) SF268 cells assessed as cell growth promotion at 10 uM after 48 hr by SRB assay
SW-620 = assay: Anticancer activity against Homo sapiens (human) SW620 cells assessed as cell growth promotion at 10 uM after 48 hr by SRB assay
KM12 = assay: Anticancer activity against Homo sapiens (human) KM12 cells assessed as cell growth promotion at 10 uM after 48 hr by SRB assay

Cc1ccc(Nn2c(SCC(=O)Nc3nc(-c4ccccc4)cs3)nc(C)c2C)cc1
Activity (UACC-62): 51.82% | Activity (UACC-257): 54.08% | Activity (SK-MEL-5): 66.75% | Activity (BT-549): 63.51% | Activity (Hs-578T): 105.97% | Activity (PC-3): 71.8% | Activity (DU-145): 83.4% | Activity (TK-10): 72.7% | Activity (RXF 393): 61.47% | Activity (CAKI-1): 53.6% | Activity (ACHN): 60.88% | Activity (A498): 92.54% | Activity (SK-OV-3): 69.62% | Activity (NCI/ADR-RES): 34.4% | Activity (OVCAR-8): 55.49% | Activity (OVCAR-5): 81.8% | Activity (OVCAR-4): 25.36% | Activity (OVCAR-3): 78.47% | Activity (MDA-MB-468): 17.71% | Activity (HCC 2998): 91.96% | Activity (COLO 205): 32.48% | Activity (NCI-H522): 49.7% | Activity (NCI-H322M): 96.01% | Activity (NCI-H23): 39.38% | Activity (NCI-H226): 46.34% | Activity (HOP-92): 59.94% | Activity (HOP-62): 67.17% | Activity (A549): 46.29% | Activity (SR): 72.64% | Activity (MOLT-4): 54.72% | Activity (K562): 37.67% | Activity (SK-MEL-28): 77.24% | Activity (SK-MEL-2): 81.38% | Activity (MDA-MB-435): 76.71% | Activity (M14): 76.97% | Activity (Malme-3M): 92.03% | Activity (SF-295): 46.1% | Activity (SF-268): 81.68% | Activity (SW-620): 98.8% | Activity (KM12): 82.85%

Cc1nc(SCC(=O)Nc2nccs2)n(Nc2ccc(Cl)cc2)c1C
Activity (UACC-62): 104.39% | Activity (UACC-257): 107.66% | Activity (SK-MEL-5): 84.95% | Activity (BT-549): 111.12% | Activity (Hs-578T): 121.05% | Activity (PC-3): 103.63% | Activity (DU-145): 122.72% | Activity (TK-10): 120.55% | Activity (RXF 393): 91.41% | Activity (CAKI-1): 101.14% | Activity (ACHN): 104.69% | Activity (A498): 101.93% | Activity (SK-OV-3): 102.45% | Activity (NCI/ADR-RES): 100.18% | Activity (OVCAR-8): 104.9% | Activity (OVCAR-5): 87.36% | Activity (OVCAR-4): 102.19% | Activity (OVCAR-3): 117.12% | Activity (MDA-MB-468): 105.66% | Activity (HCC 2998): 115.62% | Activity (COLO 205): 121.19% | Activity (NCI-H522): 111.97% | Activity (NCI-H322M): 131.8% | Activity (NCI-H23): 109.41% | Activity (NCI-H226): 93.51% | Activity (HOP-92): 96.74% | Activity (HOP-62): 88.3% | Activity (A549): 101.96% | Activity (SR): 120.95% | Activity (MOLT-4): 117.57% | Activity (K562): 112.86% | Activity (SK-MEL-28): 111.02% | Activity (SK-MEL-2): 116.11% | Activity (MDA-MB-435): 110.71% | Activity (M14): 97.83% | Activity (Malme-3M): 140.83% | Activity (SF-295): 97.66% | Activity (SF-268): 112.74% | Activity (SW-620): 123.41% | Activity (KM12): 113.75%

CCOC(=O)c1csc(NC(=O)CSc2nc(C)c(C)n2Nc2ccc(C)cc2)n1
Activity (UACC-62): 62.91% | Activity (UACC-257): 88.46% | Activity (SK-MEL-5): 47.48% | Activity (BT-549): 91.44% | Activity (Hs-578T): 139.32% | Activity (PC-3): 88.3% | Activity (DU-145): 108.96% | Activity (TK-10): 77.84% | Activity (RXF 393): 38.47% | Activity (CAKI-1): 80.52% | Activity (ACHN): 76.52% | Activity (A498): 90.47% | Activity (SK-OV-3): 90.71% | Activity (NCI/ADR-RES): 70.04% | Activity (OVCAR-8): 82.64% | Activity (OVCAR-5): 74.57% | Activity (OVCAR-4): 74.76% | Activity (OVCAR-3): 108.5% | Activity (MDA-MB-468): 67.17% | Activity (HCC 2998): 96.72% | Activity (COLO 205): 80.51% | Activity (NCI-H522): 76.3% | Activity (NCI-H322M): 97.18% | Activity (NCI-H23): 74.71% | Activity (NCI-H226): 70.72% | Activity (HOP-92): 44.51% | Activity (HOP-62): 63.23% | Activity (A549): 82.13% | Activity (SR): 87.01% | Activity (MOLT-4): 92.25% | Activity (K562): 78.51% | Activity (SK-MEL-28): 80.17% | Activity (SK-MEL-2): 93.46% | Activity (MDA-MB-435): 78.21% | Activity (M14): 70.97% | Activity (Malme-3M): 110.81% | Activity (SF-295): 53.71% | Activity (SF-268): 102.22% | Activity (SW-620): 98.75% | Activity (KM12): 108.43%

Source: ChEMBL document CHEMBL3044631, “Synthesis of 2-[4,5-dimethyl-1-(phenylamino)-1H-imidazol-2-ylthio]-N-(thiazole-2-yl)acetamide derivatives and their anticancer activities” (2013)
